Experimental data: patent publication US7820834B2, “Triptolide 5,6-derivatives as immunomodulators and anticancer agents” (Pharmagenesis, Inc., priority 2004, dated 2010)

Columns and labels:
Type in all cases: cell-based
[1] = tested on: Jurkat human T lymphoma cell line; test: Annexin V Apoptosis Assay; conditions: 24 h, dose-dependent, FIG. 1
Protocol: Test samples were diluted to 1 mM in complete tissue culture medium (RPMI 1640 medium plus 5% heat-inactivated fetal calf serum, 1% HEPES, 1% pen/strep, 1% glutamine). Aliquots were placed in microculture plates and serial dilutions were prepared so that the final concentration would encompass the range of 2 to 6,000 nM with half-log increments. Cells from an exponentially expanding culture of the Jurkat human T lymphoma cell line (#TIB-152 obtained from American Type Culture Collection, Manassas, Va.) were harvested, washed once by centrifugation, re-suspended in complete tissue culture medium, and further diluted to a concentration of 1×10^6 cells/ml. A volume of 100 μl of the cells (1×10^5 cells) was added to wells containing 100 μl of the diluted compounds, and the plates were incubated at 37° C. in a 5% CO2 incubator.
After 24 hours, the plates were centrifuged to pellet the cells, and the cells were washed twice with 2% heat-inactivated fetal calf serum in PBS. […] The contents of the wells were individually transferred into test tubes, and apoptosis was analyzed using a FACSCalibur flow cytometer (BD Immunocytometry Systems, San Jose, Calif.). Cells positive for Annexin V binding were considered to be apoptotic, and the data were calculated as percent apoptotic cells. […]

[2] = tested on: human T cell lymphoma (Jurkat) cells; test: Cytotoxicity (MTT) Assay; conditions: FIG. 2
Protocol: Test compounds were dissolved in DMSO at a concentration of 20 mM. Further dilutions were done in RPMI1640 medium (GIBCO, Rockville, Md.) supplemented with 10% Fetal Calf Serum (HyClone Laboratories, Logan, Utah). Invention compound 14-acetyl-5,6-didehydrotriptolide (designated PG746) was tested with and without a previous 16-hr incubation in human serum. Such incubation is expected to substantially convert the 14-acetyl group of PG746 to a 14-hydroxy group.
Cytotoxicity of the compounds was determined in a standard MTT assay using Cell Proliferation Kit I (#1 465 007, Roche Diagnostics, Mannheim, Germany). Accordingly, human T cell lymphoma (Jurkat) cells (4×10^5 per well) were cultured for 24 h, in 96-well tissue culture plates, in the presence of serial three-fold dilutions of test compounds or medium containing the same concentration of DMSO as in the test samples at each dilution point. The cultures were then supplemented with 10 μl/well MTT reagent for 4 h and then with 0.1 ml/well solubilizing reagent for an additional 16 h. Optical density at 570 nm was measured on a ThermoScan microplate reader (Molecular Devices, Menlo Park, Calif.).
The data is presented as OD570 values versus concentration of the compounds. The results for invention compound 14-acetyl-5,6-didehydrotriptolide (designated PG746) and triptolide (designated PG490) are given in FIG. 2.

[3] = tested on: IL-2 production in Jurkat cells; test: IL-2 Inhibition Assay; conditions: without previous incubation in human serum, FIG. 4
Protocol: Test compounds were diluted to 1 mM in complete tissue culture medium. Aliquots were placed in microculture plates coated with anti-CD3 antibody (used to stimulate the production of IL-2 by Jurkat cells), and serial dilutions were prepared so that the final concentration would encompass the range of 0.001 to 10,000 nM in log increments.
Invention compound 14-acetyl-5,6-didehydrotriptolide (designated PG746) was tested with and without a previous 16-hr incubation in human serum. Such incubation is expected to substantially convert the 14-acetyl group of PG746 to a 14-hydroxy group.
Cells from an exponentially expanding culture of Jurkat human T cell line (#TIB-152 obtained from American Type Culture Collection, Manassas, Va.) were harvested, washed once by centrifugation, re-suspended in complete tissue culture medium, and diluted to a concentration of 10^7 cells/ml. A volume of 50 μl of Jurkat cells was added to wells containing 100 μl of the diluted compounds, and the cells were stimulated with 50 ng/ml PMA and […] PHA. The plates were incubated at 37° C. in a 5% CO2 incubator. […] The stored supernatants were analyzed for human IL-2 concentration using the Luminex 100 (Luminex Corporation, Austin, Tex.), Luminex microspheres coupled with anti-IL-2 capture antibody, and fluorochrome-coupled anti-IL-2 detection antibody. The data were expressed as pg/ml of IL-2. […]

Compound	induction of apoptosis (Annexin V positive cells) [1]	concentrations at which the compound was clearly cytotoxic to Jurkat cells (MTT) ([2]; after incubation for 16 hours with human serum)	cytotoxicity (MTT), activity relative to the medium control ([2]; in assay medium, without previous incubation in human serum)	inhibition of IL-2 production, activity relative to the medium control [3]
CC(C)[C@]12O[C@H]1[C@@H]1O[C@]13[C@]1(O[C@H]1C[C@@]1(O)C4=C(CC[C@]31C)C(=O)OC4)[C@@H]2O [PG701, 5-α-hydroxytriptolide]	induced apoptosis in Jurkat cells	–	–	–
CC(=O)O[C@@H]1[C@@]2(C(C)C)O[C@H]2[C@@H]2O[C@]23[C@]12O[C@H]2C=C1C2=C(CC[C@@]13C)C(=O)OC2 [PG746, 14-acetyl-5,6-didehydrotriptolide]	–	≥ 1000 nM	no significant activity relative to the medium control	no significant activity relative to the medium control
